ChEMBL document CHEMBL3885861, “Open TG-GATES”

Organism: Rattus norvegicus
Assay: Open TG-GATES - Regimen: Single
Format: toxicity, organism-based, Sprague-Dawley
Design: regimen Single, gender Male, age 6 weeks
Details: in vivo, po, 2000 mg/kg, route gavage, dose level High; for APTT / Bas / Eos / Fbg / Hb / Ht / Lym / MCH / MCHC / MCV / Mono / Neu / PT / Plat / RBC / Ret / WBC: tissue Blood; for KIDNEY_L / KIDNEY_R / KIDNEY_TOTAL: tissue Kidney; for LIVER: tissue Liver; for A/G / ALP / ALT / AST / BUN / CRE / Ca / Cl / DBIL / GLC / IP / K / LDH / Na / PL / RALB / TBIL / TC / TG / TP / gamma-GTP: tissue Plasma

`CC(=O)[C@@]1(O)CC[C@H]2[C@@H]3C=C(Cl)C4=CC(=O)CC[C@]4(C)[C@H]3CC[C@@]21C` [CHLORMADINONE] gave a TERMINAL_BW (3 h) of 222.1 g, an APTT (3 h) of 22.6 s and a Bas (3 h) of 0%. For the same compound, the Eos (3 h) was 1%, the Fbg (3 h) was 306 mg/dL and the Hb (3 h) was 12.8 g/dL. For the same compound, the Ht (3 h) was 39.5%, the Lym (3 h) was 74.8% and the MCH (3 h) was 20 pg. It also gave an MCHC (3 h) of 32.4%, an MCV (3 h) of 61.8 fL and a Mono (3 h) of 2%. It also gave a Neu (3 h) of 21.6%, a PT (3 h) of 15.2 s and a Plat (3 h) of 107.8 x10_4/uL. The RBC (3 h) was 639.8 x10_4/ul, the Ret (3 h) was 7.8% and the WBC (3 h) was 55.6 x10_2/uL. The KIDNEY_L (3 h) was 0.9 g, the KIDNEY_R (3 h) was 1 g and the KIDNEY_TOTAL (3 h) was 1.9 g. It also gave an LIVER (3 h) of 10.1 g, an A/G (3 h) of 1.2 and an ALP (3 h) of 1401.2 IU/L. The ALT (3 h) was 45.6 IU/L, the AST (3 h) was 81 IU/L and the BUN (3 h) was 13.8 mg/dL. For the same compound, the CRE (3 h) was 0.2 mg/dL, the Ca (3 h) was 10.9 mg/dL and the Cl (3 h) was 105.2 meq/L. It also gave a DBIL (3 h) of 0.004 mg/dL, a GLC (3 h) of 172.2 mg/dL and an IP (3 h) of 8.9 mg/dL. The K (3 h) was 4.2 meq/L, the LDH (3 h) was 143.6 IU/L and the Na (3 h) was 141.2 meq/L. For the same compound, the PL (3 h) was 138 mg/dL, the RALB (3 h) was 3 g/dL and the TBIL (3 h) was 0.032 mg/dL. The TC (3 h) was 73.6 mg/dL, the TG (3 h) was 50.8 mg/dL and the TP (3 h) was 5.5 g/dL. The gamma-GTP (3 h) was 1.4 IU/L, the TERMINAL_BW (6 h) was 216.3 g and the APTT (6 h) was 23.1 s. It also gave a Bas (6 h) of 0%, an Eos (6 h) of 0.6% and a Fbg (6 h) of 313.4 mg/dL. For the same compound, the Hb (6 h) was 13.5 g/dL, the Ht (6 h) was 41.5% and the Lym (6 h) was 74%. For the same compound, the MCH (6 h) was 20.8 pg, the MCHC (6 h) was 32.6% and the MCV (6 h) was 63.7 fL. The Mono (6 h) was 1.6%, the Neu (6 h) was 23.4% and the PT (6 h) was 15.1 s. It also gave a Plat (6 h) of 124.8 x10_4/uL, an RBC (6 h) of 651.8 x10_4/ul and a Ret (6 h) of 7.9%. It also gave a WBC (6 h) of 64 x10_2/uL, a KIDNEY_L (6 h) of 1 g and a KIDNEY_R (6 h) of 1 g. For the same compound, the KIDNEY_TOTAL (6 h) was 2 g, the LIVER (6 h) was 10.3 g and the A/G (6 h) was 1.2. For the same compound, the ALP (6 h) was 1302 IU/L, the ALT (6 h) was 40.4 IU/L and the AST (6 h) was 72.8 IU/L. It also gave a BUN (6 h) of 13 mg/dL, a CRE (6 h) of 0.1 mg/dL and a Ca (6 h) of 10.8 mg/dL. It also gave a Cl (6 h) of 106.2 meq/L, a DBIL (6 h) of 0.004 mg/dL and a GLC (6 h) of 177.4 mg/dL. The IP (6 h) was 9.6 mg/dL, the K (6 h) was 4.8 meq/L and the LDH (6 h) was 157 IU/L. It also gave a Na (6 h) of 140 meq/L, a PL (6 h) of 138 mg/dL and an RALB (6 h) of 3.2 g/dL. The TBIL (6 h) was 0.034 mg/dL, the TC (6 h) was 77.2 mg/dL and the TG (6 h) was 39.8 mg/dL. It also gave a TP (6 h) of 5.7 g/dL, a gamma-GTP (6 h) of 1.6 IU/L and a TERMINAL_BW (9 h) of 215.8 g. The APTT (9 h) was 24.7 s, the Bas (9 h) was 0% and the Eos (9 h) was 0%. The Fbg (9 h) was 319.6 mg/dL, the Hb (9 h) was 13 g/dL and the Ht (9 h) was 40.7%. It also gave a Lym (9 h) of 71.2%, an MCH (9 h) of 20.2 pg and an MCHC (9 h) of 31.9%. The MCV (9 h) was 63.4 fL, the Mono (9 h) was 1% and the Neu (9 h) was 27.2%. For the same compound, the PT (9 h) was 15.7 s, the Plat (9 h) was 119.5 x10_4/uL and the RBC (9 h) was 642 x10_4/ul. It also gave a Ret (9 h) of 7.9%, a WBC (9 h) of 51.3 x10_2/uL and a KIDNEY_L (9 h) of 0.9 g. For the same compound, the KIDNEY_R (9 h) was 1 g, the KIDNEY_TOTAL (9 h) was 1.9 g and the LIVER (9 h) was 9.8 g. It also gave an A/G (9 h) of 1.3, an ALP (9 h) of 1584 IU/L and an ALT (9 h) of 39.4 IU/L. It also gave an AST (9 h) of 78 IU/L, a BUN (9 h) of 12.8 mg/dL and a CRE (9 h) of 0.1 mg/dL. For the same compound, the Ca (9 h) was 10.6 mg/dL, the Cl (9 h) was 106.6 meq/L and the DBIL (9 h) was 0 mg/dL. For the same compound, the GLC (9 h) was 178 mg/dL, the IP (9 h) was 9.4 mg/dL and the K (9 h) was 4.5 meq/L. For the same compound, the LDH (9 h) was 142 IU/L, the Na (9 h) was 141 meq/L and the PL (9 h) was 142.4 mg/dL. It also gave an RALB (9 h) of 3.2 g/dL, a TBIL (9 h) of 0.028 mg/dL and a TC (9 h) of 73 mg/dL. It also gave a TG (9 h) of 67.2 mg/dL, a TP (9 h) of 5.7 g/dL and a gamma-GTP (9 h) of 1.4 IU/L. It also gave a TERMINAL_BW (24 h) of 229.8 g, an APTT (24 h) of 25.3 s and a Bas (24 h) of 0%. The Eos (24 h) was 1%, the Fbg (24 h) was 341.6 mg/dL and the Hb (24 h) was 14 g/dL. For the same compound, the Ht (24 h) was 42.6%, the Lym (24 h) was 77.6% and the MCH (24 h) was 20.4 pg. It also gave an MCHC (24 h) of 32.8%, an MCV (24 h) of 62 fL and a Mono (24 h) of 2.6%. The Neu (24 h) was 17.8%, the PT (24 h) was 15.3 s and the Plat (24 h) was 106.3 x10_4/uL. It also gave an RBC (24 h) of 687 x10_4/ul, a Ret (24 h) of 7.3% and a WBC (24 h) of 130.3 x10_2/uL. The KIDNEY_L (24 h) was 1 g, the KIDNEY_R (24 h) was 1 g and the KIDNEY_TOTAL (24 h) was 2 g. For the same compound, the LIVER (24 h) was 11.8 g, the A/G (24 h) was 1.2 and the ALP (24 h) was 1835.4 IU/L. The ALT (24 h) was 51.2 IU/L, the AST (24 h) was 75 IU/L and the BUN (24 h) was 15.8 mg/dL. It also gave a CRE (24 h) of 0.2 mg/dL, a Ca (24 h) of 11.3 mg/dL and a Cl (24 h) of 105.4 meq/L. For the same compound, the DBIL (24 h) was 0 mg/dL, the GLC (24 h) was 192.4 mg/dL and the IP (24 h) was 7.8 mg/dL. The K (24 h) was 4.7 meq/L, the LDH (24 h) was 201 IU/L and the Na (24 h) was 140.6 meq/L. The PL (24 h) was 185.2 mg/dL, the RALB (24 h) was 3.2 g/dL and the TBIL (24 h) was 0.004 mg/dL. It also gave a TC (24 h) of 82 mg/dL, a TG (24 h) of 222 mg/dL and a TP (24 h) of 5.8 g/dL. The gamma-GTP (24 h) was 1.4 IU/L.
